In patent publication US20240368214A1, “POSITIVE NMDA-MODULATING COMPOUNDS AND METHODS OF USE THEREOF” (SAGE THERAPEUTICS, INC., priority 2021, published 2024):
Like-named read-outs stand apart in the source and are kept apart here.

Biological target: T1, recombinant human GluN1/GluN2A receptor (Homo sapiens, UniProt Q05586+Q12879)
T1 construct: expressed in transfected cells; host or cells: HEK293, tetracycline-inducible expression
Experiment: Whole-cell patch clamp of mammalian cells (Syncropatch 384i), NMDA modulation
Type: cell-based
Settings: HEK293 cells, human GluN1/GluN2A, glutamate 1 μM / glycine 100 μM, -80 mV, peak amplitude increase; for EC50: read-out: EC50
Method in brief: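 Modulation read as fold rise in peak current, (Icomp/Icontrol)−1, from 8 concentrations with ≥2 wells each, four-parameter fit. Compound pre-incubated 120 s then co-applied with 1 μM glutamate plus 100 μM glycine; tetracycline-inducible HEK293 GluN1/GluN2A cells clamped at −80 mV.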

T1 sequence (Q12879 23-1464, other chains not shown): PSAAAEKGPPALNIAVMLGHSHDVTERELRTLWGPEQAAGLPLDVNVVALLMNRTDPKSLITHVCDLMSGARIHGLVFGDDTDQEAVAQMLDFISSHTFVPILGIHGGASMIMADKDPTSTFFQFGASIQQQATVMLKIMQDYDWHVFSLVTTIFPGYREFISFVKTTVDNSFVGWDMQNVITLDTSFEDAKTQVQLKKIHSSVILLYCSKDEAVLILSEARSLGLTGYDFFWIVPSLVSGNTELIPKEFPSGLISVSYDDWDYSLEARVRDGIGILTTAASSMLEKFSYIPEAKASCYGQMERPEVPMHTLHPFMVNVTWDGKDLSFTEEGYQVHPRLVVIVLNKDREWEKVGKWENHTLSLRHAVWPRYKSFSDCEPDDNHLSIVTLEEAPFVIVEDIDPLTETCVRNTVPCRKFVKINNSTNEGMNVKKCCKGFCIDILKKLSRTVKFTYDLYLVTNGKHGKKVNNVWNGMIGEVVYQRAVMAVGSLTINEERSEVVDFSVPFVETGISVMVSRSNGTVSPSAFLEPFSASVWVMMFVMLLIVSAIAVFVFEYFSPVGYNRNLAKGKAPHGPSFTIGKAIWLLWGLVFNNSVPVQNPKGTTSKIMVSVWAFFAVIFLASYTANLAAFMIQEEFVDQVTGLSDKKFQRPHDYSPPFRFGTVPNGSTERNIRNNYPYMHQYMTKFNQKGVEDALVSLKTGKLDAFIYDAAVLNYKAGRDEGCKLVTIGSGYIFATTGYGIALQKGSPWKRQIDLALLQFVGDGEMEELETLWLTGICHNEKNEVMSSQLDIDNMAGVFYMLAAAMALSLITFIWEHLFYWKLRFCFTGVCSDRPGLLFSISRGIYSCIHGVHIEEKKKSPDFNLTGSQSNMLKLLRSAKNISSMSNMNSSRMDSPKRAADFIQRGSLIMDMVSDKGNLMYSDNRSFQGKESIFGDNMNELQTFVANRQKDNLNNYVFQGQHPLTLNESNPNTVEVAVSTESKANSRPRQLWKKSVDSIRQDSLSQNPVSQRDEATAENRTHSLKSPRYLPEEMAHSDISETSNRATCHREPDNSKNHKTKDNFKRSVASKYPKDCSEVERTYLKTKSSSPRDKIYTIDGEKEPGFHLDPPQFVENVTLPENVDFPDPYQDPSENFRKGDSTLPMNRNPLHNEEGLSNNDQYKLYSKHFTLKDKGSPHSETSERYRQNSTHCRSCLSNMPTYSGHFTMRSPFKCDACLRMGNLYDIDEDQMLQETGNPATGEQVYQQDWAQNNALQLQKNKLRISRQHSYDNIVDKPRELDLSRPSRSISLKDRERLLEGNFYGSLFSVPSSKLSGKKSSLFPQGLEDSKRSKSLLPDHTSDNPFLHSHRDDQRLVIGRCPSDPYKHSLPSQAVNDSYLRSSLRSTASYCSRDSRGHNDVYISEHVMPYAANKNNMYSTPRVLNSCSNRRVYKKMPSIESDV

Row | Structure (SMILES) | EC50 (Table F-2) [nM] | Emax (Table G-2) [%] | EC50 (Table G-2) [nM] | also measured
1 | CC[C@]1(O)CC[C@@]2(C)C(=CC[C@H]3[C@@H]4CC[C@H]([C@H](C)CC[C@H](O)C(C)C)[C@@]4(CC)CC[C@@H]32)C1 [Compound F-5, (3S,8S,9S,10R,13R,14S,17R)-3,13-diethyl-17-((2R,5S)-5-hydroxy-6-methylheptan-2-yl)-10-methyl-2,3,4,7,8,9,10,11,12,13,14,15,16,17-tetradecahydro-1H-cyclopenta[a]phenanthren-3-ol] | 100 to 500 |  |  | 
2 | CC[C@]1(O)CC[C@@]2(C)[C@@H](CC[C@@H]3[C@@H]2CC[C@]2(CC)[C@@H]([C@H](C)CC[C@H](O)C(C)C)CC[C@@H]32)C1 [Compound F-6, (3S,5S,8R,9S,10S,13R,14S,17R)-3,13-diethyl-17-((2R,5S)-5-hydroxy-6-methylheptan-2-yl)-10-methylhexadecahydro-1H-cyclopenta[a]phenanthren-3-ol] | 100 to 500 |  |  | 
3 | CC[C@]1(O)CC[C@@]2(C)[C@@H](CC[C@@H]3[C@@H]2CC[C@]2(CC)[C@@H]([C@H](C)CC[C@@H](O)C(C)C)CC[C@@H]32)C1 [Compound F-7, (3S,5S,8R,9S,10S,13R,14S,17R)-3,13-diethyl-17-((2R,5R)-5-hydroxy-6-methylheptan-2-yl)-10-methylhexadecahydro-1H-cyclopenta[a]phenanthren-3-ol] | 100 to 500 |  |  | 
4 | CC[C@]1(O)CC[C@@]2(C)[C@@H](CC[C@H]3[C@@H]4CC[C@H]([C@H](C)CC[C@H](O)C(C)C)[C@H]4CC[C@@H]32)C1 [Compound F-8, (3S,5S,8S,9S,10S,13R,14R,17R)-3-ethyl-17-((2R,5S)-5-hydroxy-6-methylheptan-2-yl)-10-methylhexadecahydro-1H-cyclopenta[a]phenanthren-3-ol] | 100 to 500 |  |  | 
5 | CC[C@]1(O)CC[C@@]2(C)[C@@H](CC[C@H]3[C@@H]4CC[C@H]([C@H](C)CC[C@@H](O)C(C)C)[C@H]4CC[C@@H]32)C1 [Compound F-9, (3S,5S,8S,9S,10S,13R,14R,17R)-3-ethyl-17-((2R,5R)-5-hydroxy-6-methylheptan-2-yl)-10-methylhexadecahydro-1H-cyclopenta[a]phenanthren-3-ol] | 100 to 500 |  |  | 
6 | CC[C@]1(O)CC[C@@]2(C)C(=CC[C@H]3[C@@H]4CC[C@H]([C@H](C)CC[C@@H](O)C(C)C)[C@H]4CC[C@@H]32)C1 [Compound F-10, (3S,8S,9S,10R,13R,14R,17R)-3-ethyl-17-((2R,5R)-5-hydroxy-6-methylheptan-2-yl)-10-methyl-2,3,4,7,8,9,10,11,12,13,14,15,16,17-tetradecahydro-1H-cyclopenta[a]phenanthren-3-ol] | 100 to 500 |  |  | 
7 | CC[C@]1(O)CC[C@@]2(C)C(=CC[C@H]3[C@@H]4CC[C@H]([C@H](C)CC[C@@H](O)C(C)C)[C@@]4(CC)CC[C@@H]32)C1 [Compound F-14, (3S,8S,9S,10R,13R,14S,17R)-3,13-diethyl-17-((2R,5R)-5-hydroxy-6-methylheptan-2-yl)-10-methyl-2,3,4,7,8,9,10,11,12,13,14,15,16,17-tetradecahydro-1H-cyclopenta[a]phenanthren-3-ol] | 100 to 500 |  |  | 
8 | CC[C@]1(O)CC[C@H]2[C@@H](CC[C@@H]3[C@@H]2CC[C@]2(C)[C@@H]([C@H](C)CC[C@](C)(O)C(F)(F)F)CC[C@@H]32)C1 [Compound G-1, (3S,5S,8R,9R,10S,13R,14S,17R)-3-ethyl-13-methyl-17-((2R,5S)-6,6,6-trifluoro-5-hydroxy-5-methylhexan-2-yl)hexadecahydro-1H-cyclopenta[a]phenanthren-3-ol] |  | > 200 | 1 to 100 | 
9 | CC[C@]1(O)CC[C@H]2[C@@H](CC[C@@H]3[C@@H]2CC[C@]2(C)[C@@H]([C@H](C)CC[C@@](C)(O)C(F)(F)F)CC[C@@H]32)C1 [Compound G-2, (3S,5S,8R,9R,10S,13R,14S,17R)-3-ethyl-13-methyl-17-((2R,5R)-6,6,6-trifluoro-5-hydroxy-5-methylhexan-2-yl)hexadecahydro-1H-cyclopenta[a]phenanthren-3-ol] |  | 100 to 200 | 500 to 1000 | 
10 | CC[C@]1(O)CC[C@@]2(CC)[C@@H](CC[C@H]3[C@@H]4CC[C@H]([C@H](C)CCCC(C)(C)O)[C@@]4(C)CC[C@@H]32)C1 [Compound G-3, (3S,5S,8S,9S,10S,13R,14S,17R)-3,10-diethyl-17-((R)-6-hydroxy-6-methylheptan-2-yl)-13-methylhexadecahydro-1H-cyclopenta[a]phenanthren-3-ol] |  | 100 to 200 | 1 to 100 | 
11 | CC[C@]1(O)CC[C@@]2(CC)[C@@H](CC[C@H]3[C@@H]4CC[C@H]([C@H](C)CC[C@@](C)(O)C(F)(F)F)[C@@]4(C)CC[C@@H]32)C1 [Compound G-4, (3S,5S,8S,9S,10S,13R,14S,17R)-3,10-diethyl-13-methyl-17-((2R,5R)-6,6,6-trifluoro-5-hydroxy-5-methylhexan-2-yl)hexadecahydro-1H-cyclopenta[a]phenanthren-3-ol] |  | 100 to 200 | 100 to 500 | 
12 | CC[C@]1(O)CC[C@@]2(CC)[C@@H](CC[C@H]3[C@@H]4CC[C@H]([C@H](C)CC[C@](C)(O)C(F)(F)F)[C@@]4(C)CC[C@@H]32)C1 [Compound G-5, (3S,5S,8S,9S,10S,13R,14S,17R)-3,10-diethyl-13-methyl-17-((2R,5S)-6,6,6-trifluoro-5-hydroxy-5-methylhexan-2-yl)hexadecahydro-1H-cyclopenta[a]phenanthren-3-ol] |  | > 200 | 1 to 100 | 
13 | C[C@H](CC[C@](C)(O)C(F)(F)F)[C@H]1CCC[C@H]2[C@@H]3CC=C4C[C@@](C)(O)CC[C@]4(C)[C@H]3CC[C@]12C [Compound H-1, (2S,4aR,4bS,6aR,7R,10aS,10bS)-2,4a,6a-trimethyl-7-((2R,5S)-6,6,6-trifluoro-5-hydroxy-5-methylhexan-2-yl)-1,2,3,4,4a,4b,5,6,6a,7,8,9,10,10a,10b,11-hexadecahydrochrysen-2-ol] |  |  |  | Emax (Table H-2): 100 to 200%; EC50 (Table H-2): 500 to 1000 nM
14 | C[C@H](CCC1(O)CCC(C)(C)CC1)[C@H]1CCC[C@H]2[C@@H]3CC[C@H]4C[C@](O)(C(F)(F)F)CC[C@]4(C)[C@H]3CC[C@]12C [Compound H-3, (2S,4aS,4bS,6aR,7R,10aS,10bR,12aS)-7-((R)-4-(1-hydroxy-4,4-dimethylcyclohexyl)butan-2-yl)-4a,6a-dimethyl-2 (trifluoromethyl)octadecahydrochrysen-2-ol] |  |  |  | EC50 (Table H-2): > 1000 nM
15 | CC[C@]1(O)CC[C@@]2(C)[C@@H](CC[C@@H]3[C@@H]2CC[C@]2(C)[C@@H]([C@H](C)CCCC(C)(C)O)CCC[C@@H]32)C1 [Compound H-4, (2S,4aS,4bS,6aR,7R,10aS,10bR,12aS)-2-ethyl-7-((R)-6-hydroxy-6-methylheptan-2-yl)-4a,6a-dimethyloctadecahydrochrysen-2-ol] |  |  |  | Emax (Table H-2): 100 to 200%; EC50 (Table H-2): 100 to 500 nM
16 | CC[C@]1(O)CC[C@@]2(C)C(=CC[C@H]3[C@@H]4CCC[C@H]([C@H](C)CC[C@H](O)C(C)C)[C@@]4(C)CC[C@@H]32)C1 [Compound H-5, (2S,4aR,4bS,6aR,7R,10aS,10bS)-2-ethyl-7-((2R,5S)-5-hydroxy-6-methylheptan-2-yl)-4a,6a-dimethyl-1,2,3,4,4a,4b,5,6,6a,7,8,9,10,10a,10b,11-hexadecahydrochrysen-2-ol] |  |  |  | EC50 (Table H-2): 100 to 500 nM
